In patent publication US6821941B2, “Tablet of compacted particulated cleaning composition” (ISP Investments Inc., priority 2002, dated 2004):

How the values were obtained:
[1] = Disintegration rate of dishwashing detergent tablet vs. additive ingredient; type: physicochemical; conditions: additive in standard dishwashing detergent formulation; based on a tablet of 20 g; FIGURE
Description: The FIGURE is a bar graph of Disintegration Rate (g/min) vs. Additive Ingredient present in a standard dishwashing detergent formulation.
The dishwashing disintegrant tablets of the invention herein have a disintegration rate of at least 40 g/min (based on a tablet of 20 g).

[2] = grams of solid to form a saturated solution in 100 g of water at 20° C.; cited from earlier work

Disintegration rate [1]: minimal
Structure (SMILES): NC(N)=O [Urea]
Water Solubility (g/100 g) [2]: >100 g/100 g
